Read-outs that look alike come from different tables or passages of the source.
Tests used:
Format in all cases: cell-based
HBsAg = assay: PHH HBV natural infection assay, HBsAg (alphalisa)
Experimental: (§1) Detailed procedures regarding primary human hepatocyte (PHH) HBV natural infection assay are described as below. One tube of frozen PHH (10 million cells) is thawed in 37° C. water bath and then transferred to 20 mL of PHH thawing medium (Sigma, InVitroGRO HT Medium, Cat. S03319) with gently mixing. The cells were then centrifuged at […] for 5 min, the supernatant was discarded and the tube was refilled with 25 mL of PHH plating medium (Sigma, InVitroGRO CP Medium, Cat. S03317). The tube was shaken very gently to re-suspend all cells, and then 50 μl of cells were transferred to each well 384-well collagen I coated plate with appropriate liquid handling equipment, e.g. Integra VIAFLO384 or Agilent Bravo. The cells were then cultured for 24 hours in a cell incubator. For HBV infection, after PHH attachment on the culture plate, the plating medium was removed and replenished with PHH culture medium containing HBV virus. The PHH culture medium was prepared with Dulbecco's Modified Eagle Medium (DMEM)/F12 (1:1 in volume ratio) containing 10% fetal bovine serum (Gibco, Cat. 10099141), 5 ng/mL human epidermal growth factor (Gibco, Cat.PHG0311L), 20 ng/mL dexamethasone (Sigma, Cat.D4902-100 mg), 250 ng/mL human recombinant insulin (Gibco, Cat.41400045) and 100 U/mL penicillin. HBV virus at 200 genome equivalent (GE) per cell with 4% PEG8000 (Sigma, Cat.P1458) containing culture medium were added to the PHH culture medium for infection. The cells were then cultured for 24 hours in cell incubator. Then the cell culture supernatant was removed. The HBV-infected PHH were cultured with sandwich culture method with PHH culture medium containing 1% DMSO and 0.25 mg/mL matrix gel for 72 hours. The supernatant was then refreshed with PHH culture medium containing different concentrations of testing compounds for two times with 72-hour interval. At the end of treatment, the supernatant was collected for viral markers measurements, including HBsAg, HBeAg, HBV DNA and cytotoxicity. HBsAg and HBeAg were detected using alphalisa method using their specific antibodies. For HBV DNA detection, HBV DNA Quantitative Fluorescence Diagnostic Kit (Sansure Biotech Inc.) was used following the manufacture's protocol. Cytotoxicity was determined using Cell Counting Kit-8 (CCK8, Dojindo Molecular Technologies, Inc.).
(§2) The compounds of the present invention were tested for their capacity to inhibit HBsAg and HBeAg as described herein.

HBeAg = assay: PHH HBV natural infection assay, HBeAg (alphalisa)
Experimental: as §1, §2

[1] = PHH natural infection assay, cytotoxicity (Cell Counting Kit-8); conditions: human, HBV-infected primary human hepatocytes, CCK8, end of treatment
Experimental: as §1

[2] = Hepatitis B virus, Hepatocyte, 72 h, read-out: HBsAg IC50, HBV-infected primary human hepatocytes, supernatant, compound medium refreshed two times with 72-hour interval
[3] = Hepatitis B virus, Hepatocyte, 72 h, read-out: HbeAg IC50, HBV-infected primary human hepatocytes, supernatant, compound medium refreshed two times with 72-hour interval

Row | Structure (SMILES) | IC50 (HBsAg; [2]) [µM] | IC50 (HBeAg; [3]) [µM] | CC50 at 144 h [1] [µM] | IC50 (HBsAg; read-out: HBsAg IC50, HBV-infected primary human hepatocytes, supernatant, compound medium refreshed two times with 72-hour interval) [µM] | IC50 (HBeAg; read-out: HbeAg IC50, HBV-infected primary human hepatocytes, supernatant, compound medium refreshed two times with 72-hour interval) [µM]
1 | CC(C)(C)S(=O)(=O)c1ccc(C(=O)NC2CC3(C2)CC(c2nc4cc(Cl)ccc4o2)C3)o1 (stereo not drawn) [Example 39, 5-tert-butylsulfonyl-N-[6-(5-chloro-1,3-benzoxazol-2-yl)spiro[3.3]heptan-2-yl]furan-2-carboxamide] | 0.96 | 0.603 | > 10 |  | 
2 | CCCC(=O)NS(=O)(=O)c1ccc(C(=O)N[C@H]2CC3(C2)C[C@H](c2nc4cc(Cl)ccc4o2)C3)o1 (stereo partly drawn) [Example 69] | 0.329 | 0.223 | > 100 |  | 
3 | CS(=O)(=O)c1ccc(C(=O)NC2CC3(C2)CC(c2nc4cc(Cl)cnc4o2)C3)o1 (stereo not drawn) [Example 48, N-[6-(6-chlorooxazolo[5,4-b]pyridin-2-yl)spiro[3.3]heptan-2-yl]-5-methylsulfonyl-furan-2-carboxamide] | 2.4 | 1.82 | > 100 |  | 
4 | COCC(=O)NS(=O)(=O)c1ccc(C(=O)N[C@H]2CC3(C2)C[C@H](c2nc4cc(Cl)ccc4o2)C3)o1 (single isomer, unassigned) [Example 73, (Sa)—N-[6-(5-chloro-1,3-benzoxazol-2-yl)spiro[3.3]heptan-2-yl]-5-[(2-methoxyacetyl)sulfamoyl]furan-2-carboxamide, or (Ra)—N-[6-(5-chloro-1,3-benzoxazol-2-yl)spiro[3.3]heptan-2-yl]-5-[(2-methoxyacetyl)sulfamoyl]furan-2-carboxamide] | 0.416 | 0.256 | > 100 |  | 
5 | O=C(NC1CC2(C1)CC(c1nc3cc(Cl)ccc3o1)C2)c1ccc(S(=O)(=O)CC2CC(F)(F)C2)o1 (stereo not drawn) [Example 27, N-[6-(5-chloro-1,3-benzoxazol-2-yl)spiro[3.3]heptan-2-yl]-5-[(3,3-difluorocyclobutyl)methylsulfonyl]furan-2-carboxamide] | 0.152 | 0.116 | > 100 |  | 
6 | O=C(NC1CC2(C1)CC(c1nc3cc(Cl)ccc3o1)C2)c1ccc(S(=O)(=O)NC(=O)C2CCCS(=O)(=O)C2)o1 (stereo not drawn) [Example 85, N-[6-(5-chloro-1,3-benzoxazol-2-yl)spiro[3.3]heptan-2-yl]-5-[(1,1-dioxothiane-3-carbonyl)sulfamoyl]furan-2-carboxamide] | 2.52 | 1.67 | > 10 |  | 
7 | O=C(NC1CC2(C1)CC(c1nc3cc(Cl)ccc3o1)C2)c1ccc([S+]([O-])CC2CC2)o1 (stereo not drawn) [Example 19, N-[6-(5-chloro-1,3-benzoxazol-2-yl)spiro[3.3]heptan-2-yl]-5-(cyclopropylmethylsulfinyl)furan-2-carboxamide] | 0.036 | 0.045 | 94.5 |  | 
8 | [H][C@]1(NC(=O)c2ccc([S@](C)(=N)=O)o2)C[C@]2(C1)C[C@]([H])(c1nc3cc(Cl)ccc3o1)C2 (stereo partly drawn) [Example 52-d, (Ra)—N-[6-(5-chloro-1,3-benzoxazol-2-yl)spiro[3.3]heptan-2-yl]-5-[(R)-methylsulfonimidoyl]furan-2-carboxamide] | 0.966 | 0.876 | > 100 |  | 
9 | CS(=O)(=O)Cc1ccc(C(=O)NC2CC3(C2)CC(c2nc4cc(Cl)ccc4o2)C3)o1 (stereo not drawn) [Example 30, N-[6-(5-chloro-1,3-benzoxazol-2-yl)spiro[3.3]heptan-2-yl]-5-(methylsulfonylmethyl)furan-2-carboxamide] | 3.97 | 2.17 | > 100 |  | 
10 | N=S(=O)(CC1COC1)c1ccc(C(=O)NC2CC3(C2)CC(c2nc4cc(Cl)ccc4o2)C3)o1 (stereo not drawn) [Example 56, N-[6-(5-chloro-1,3-benzoxazol-2-yl)spiro[3.3]heptan-2-yl]-5-(oxetan-3-ylmethylsulfonimidoyl)furan-2-carboxamide] | 4.41 | 2.9 | > 100 |  | 
11 | CS(=O)(=O)c1ccc(C(=O)NC2CC3(C2)CC(c2nc4cc(Cl)ccc4o2)C3)o1 (stereo not drawn) [Example 15, N-[6-(5-chloro-1,3-benzoxazol-2-yl)spiro[3.3]heptan-2-yl]-5-methylsulfonyl-furan-2-carboxamide] | 1.95 | 1.17 | 79 |  | 
12 | O=C(NC1CC2(C1)CC(c1nc3cc(Cl)ccc3o1)C2)c1ccc(S(=O)(=O)NC(=O)C2COC2)o1 (stereo not drawn) [Example 86, N-[6-(5-chloro-1,3-benzoxazol-2-yl)spiro[3.3]heptan-2-yl]-5-(oxetane-3-carbonylsulfamoyl)furan-2-carboxamide] | 2.99 | 2.19 | > 10 |  | 
13 | CC(C)S(=N)(=O)Cc1ccc(C(=O)NC2CC3(C2)CC(c2nc4cc(Cl)ccc4o2)C3)o1 (stereo not drawn) [Example 59, N-[6-(5-chloro-1,3-benzoxazol-2-yl)spiro[3.3]heptan-2-yl]-5-[(isopropylsulfonimidoyl)methyl]furan-2-carboxamide] | 3.81 | 2.6 | > 100 |  | 
14 | COCc1ccc(C(=O)NC2CC3(C2)CC(c2nc4cc(Cl)ccc4o2)C3)o1 (stereo not drawn) [Example 9, N-[6-(5-chloro-1,3-benzoxazol-2-yl)spiro[3.3]heptan-2-yl]-5-(methoxymethyl)furan-2-carboxamide] | 1.57 | 1.01 | 91 |  | 
15 | CN1CC(CS(=O)(=O)c2ccc(C(=O)NC3CC4(C3)CC(c3nc5cc(Cl)ccc5o3)C4)o2)C1 (stereo not drawn) [Example 25, N-[6-(5-chloro-1,3-benzoxazol-2-yl)spiro[3.3]heptan-2-yl]-5-[(1-methylazetidin-3-yl)methylsulfonyl]furan-2-carboxamide] | 4.19 | 3.73 | > 10 |  | 
16 | N=S(=O)(c1ccc(C(=O)NC2CC3(C2)CC(c2nc4cc(Cl)cnc4o2)C3)o1)C1CC1 (single isomer, unassigned) [Example 64-a, N-[6-(6-chlorooxazolo[5,4-b]pyridin-2-yl)spiro[3.3]heptan-2-yl]-5-(cyclopropylsulfonimidoyl)furan-2-carboxamide] |  |  | > 10 | 8.45 | 4.81
17 | O=C(NC1CC2(C1)CC(c1nc3ccc(Cl)cc3o1)C2)c1ccc(C(F)(F)F)o1 (stereo not drawn) [Example 46, N-[6-(6-chloro-1,3-benzoxazol-2-yl)spiro[3.3]heptan-2-yl]-5-(trifluoromethyl)furan-2-carboxamide] | 5.83 | 2.81 | 89.8 |  | 
18 | N=S(=O)(c1ccc(C(=O)NC2CC3(C2)CC(c2nc4cc(Cl)ccc4o2)C3)o1)N1CCOCC1 (stereo not drawn) [Example 67, N-[6-(5-chloro-1,3-benzoxazol-2-yl)spiro[3.3]heptan-2-yl]-5-(morpholinosulfonimidoyl)furan-2-carboxamide] | 6.24 | 3.65 | > 10 |  | 
19 | N=S(=O)(c1ccc(C(=O)NC2CC3(C2)CC(c2nc4cc(Cl)ccc4o2)C3)o1)N1CCCC1 (stereo not drawn) [Example 66, N-[6-(5-chloro-1,3-benzoxazol-2-yl)spiro[3.3]heptan-2-yl]-5-(pyrrolidin-1-ylsulfonimidoyl)furan-2-carboxamide] | 8.18 | 3.81 | > 10 |  | 
20 | O=C(NC1CC2(C1)CC(c1nc3cc(Cl)ccc3o1)C2)c1cc(C(F)(F)F)n[nH]1 (stereo not drawn) [Example 12, N-[6-(5-chloro-1,3-benzoxazol-2-yl)spiro[3.3]heptan-2-yl]-3-(trifluoromethyl)-1H-pyrazole-5-carboxamide] | 3.96 | 6.86 | 30.2 |  | 
21 | O=C(N[C@H]1CC2(C1)C[C@H](c1nc3cc(Cl)ccc3o1)C2)c1ccc(S(=O)(=O)NC(=O)C2CC2)o1 (single isomer, unassigned) [Example 71, (Sa)—N-[6-(5-chloro-1,3-benzoxazol-2-yl)spiro[3.3]heptan-2-yl]-5-(cyclopropanecarbonylsulfamoyl)furan-2-carboxamide, or (Ra)—N-[6-(5-chloro-1,3-benzoxazol-2-yl)spiro[3.3]heptan-2-yl]-5-(cyclopropanecarbonylsulfamoyl)furan-2-carboxamide] | 3.66 | 3.28 | > 100 |  | 

Reference: US20230286969A1, “AROMATIC SPIRO RING AMIDE DERIVATIVES FOR THE TREATMENT AND PROPHYLAXIS OF HEPATITIS B VIRUS INFECTION” (Hoffmann-La Roche Inc., priority 2020, published 2023)
